Measurements as given in US9156872B2, “2′-azido substituted nucleoside derivatives and methods of use thereof for the treatment of viral diseases” (priority 2011, dated 2015).
Like-named read-outs stand apart in the source and are kept apart here.

Test system: HCV replicon cells
Assay: Cell-based HCV replicon assay (replicon RNA by Taqman real time PCR)
Settings: read-out: 1b EC50
[1] = Hepatitis C virus, 72 h, HCV replicon 1b, cells harvested on day 3
[2] = HCV replicon 1b, cells harvested on day 3

Row | Compound | EC50 [µM] | EC50 (Hepatitis C virus, 72 h) [µM] | also measured
1 | CCOC(=O)[C@H](C)NP(=O)(OC[C@H]1O[C@@H](n2cnc3c(OCC)nc(N)nc32)[C@](C)(N=[N+]=[N-])[C@@H]1O)Oc1ccccc1Cl (single isomer, unassigned) [Compound 359] | 3.3 | – | –
2 | COc1nc(N)nc2c1ncn2[C@@H]1O[C@H](COP(=O)(N[C@@H](C)C(=O)OCC(C)C)Oc2ccc(Cl)cc2)[C@@H](O)[C@@]1(C)N=[N+]=[N-] (single isomer, unassigned) [Compound 296] | 0.1 | – | –
3 | C[C@H](NP(=O)(OC[C@H]1O[C@@H](n2ccc(=O)[nH]c2=O)[C@](C)(N=[N+]=[N-])[C@@H]1O)Oc1ccc(F)cc1)C(=O)OC1CCCCC1 (single isomer, unassigned) [Compound 232] | > 100 | – | –
4 | C[C@H](NP(=O)(OC[C@H]1O[C@@H](n2ccc(=O)[nH]c2=O)[C@](C)(N=[N+]=[N-])[C@@H]1O)Oc1ccc(Cl)cc1)C(=O)OC1CCCCC1 (stereo partly shown) [Compound 324] | – | 4.3 | –
5 | COC(=O)[C@H](C)NP(=O)(OC[C@H]1O[C@@H](n2ccc(=O)[nH]c2=O)[C@](C)(N=[N+]=[N-])[C@@H]1O)Oc1ccccc1 (single isomer, unassigned) [Compound 158] | – | 9 | –
6 | COc1nc(N)nc2c1ncn2[C@@H]1O[C@H](COP(=O)(N[C@@H](C)C(=O)OC(C)C)Oc2ccc(Cl)cc2)[C@@H](O)[C@@]1(C)N=[N+]=[N-] (single isomer, unassigned) [Compound 293] | – | 5.7 | –
7 | CCOc1nc(N)nc2c1ncn2[C@@H]1O[C@H](COP(=O)(N[C@@H](C)C(=O)OC(C)C)Oc2ccccc2Cl)[C@@H](O)[C@@]1(C)N=[N+]=[N-] (single isomer, unassigned) [Compound 316] | 27.9 | – | –
8 | COC(=O)c1ccccc1OP(=O)(N[C@@H](C)C(=O)OC)OC[C@H]1O[C@@H](n2ccc(=O)[nH]c2=O)[C@](C)(N=[N+]=[N-])[C@@H]1O (single isomer, unassigned) [Compound 215] | 3.1 | – | –
9 | COC(=O)[C@H](C)NP(=O)(OC[C@H]1O[C@@H](n2cnc3c(OC)nc(N)nc32)[C@](C)(N=[N+]=[N-])[C@@H]1O)Oc1ccc(Cl)cc1 (single isomer, unassigned) [Compound 259] | 0.6 | – | –
10 | COc1nc(N)nc2c1ncn2[C@@H]1O[C@H](COP(=O)(N[C@@H](C)C(=O)OC(C)C)Oc2ccccc2)C(O)[C@@]1(C)N=[N+]=[N-] (single isomer, unassigned) [Compound 252] | – | 1.1 | –
11 | CCOc1nc(N)nc2c1ncn2[C@@H]1O[C@H](COP(=O)(N[C@@H](C)C(=O)OC)Oc2ccccc2)[C@@H](O)[C@@]1(C)N=[N+]=[N-] (single isomer, unassigned) [Compound 142] | – | 0.5 | –
12 | COC(=O)[C@H](C)NP(=O)(OC[C@H]1O[C@@H](n2ccc(=O)[nH]c2=O)[C@](C)(N=[N+]=[N-])[C@@H]1O)Oc1ccc(Cl)cc1 (stereo partly shown) [Compound 50] | – | 4 | –
13 | CCOc1nc(N)nc2c1ncn2[C@@H]1O[C@@H]2COP(=O)(OC(C)C)O[C@H]2[C@@]1(C)N=[N+]=[N-] (stereo partly shown) [Compound 23] | – | – | EC50 [1]: 69 µM
14 | COc1nc(N)nc2c1ncn2[C@@H]1O[C@H](COP(=O)(N[C@@H](C)C(=O)OC(C)C)Oc2ccccc2Cl)[C@@H](O)[C@@]1(C)N=[N+]=[N-] (single isomer, unassigned) [Compound 280] | 5 | – | –
15 | CCOc1nc(N)nc2c1ncn2[C@@H]1O[C@H](COP(=O)(N[C@@H](C)C(=O)OC)Oc2ccc(Cl)cc2)[C@@H](O)[C@@]1(C)N=[N+]=[N-] (single isomer, unassigned) [Compound 311] | 0.9 | – | –
16 | C[C@@]1(N=[N+]=[N-])[C@@H]2OP(=O)(OC3CCC3)OC[C@H]2O[C@H]1n1ccc(=O)[nH]c1=O (stereo partly shown) [Compound 83] | – | – | EC50 [1]: 63 µM
17 | CCOC(=O)[C@H](C)NP(=O)(OC[C@H]1O[C@@H](n2cnc3c(NC4CC4)nc(N)nc32)[C@](C)(N=[N+]=[N-])[C@@H]1O)Oc1ccccc1 (stereo partly shown) [Compound 387] | – | 1.9 | –
18 | CCOc1nc(N)nc2c1ncn2[C@@H]1O[C@H](COP(=O)(N[C@@H](C)C(=O)OC(C)C)Oc2ccccc2)[C@@H](O)[C@@]1(C)N=[N+]=[N-] (single isomer, unassigned) [Compound 166] | 0.8 | – | –
19 | COC(=O)[C@H](C)NP(=O)(OC[C@H]1O[C@@H](n2cnc3c(N4CCC4)nc(N)nc32)[C@](C)(N=[N+]=[N-])[C@@H]1O)Oc1ccccc1Cl (stereo partly shown) [Compound 388] | – | 1.6 | –
20 | COc1nc(N)nc2c1ncn2[C@@H]1O[C@H](COP(=O)(N[C@@H](C)C(=O)OC(C)C)Oc2ccc(Cl)c(Cl)c2)[C@@H](O)[C@@]1(C)N=[N+]=[N-] (single isomer, unassigned) [Compound 282] | – | 5 | –
21 | C[C@H](NP(=O)(OC[C@H]1O[C@@H](n2ccc(N)nc2=O)[C@](C)(N=[N+]=[N-])[C@@H]1O)Oc1ccc(Cl)cc1)C(=O)OC1CCCCC1 (single isomer, unassigned) [Compound 339] | – | 14 | –
22 | COc1nc(N)nc2c1ncn2[C@@H]1O[C@H](COP(=O)(N[C@@H](C)C(=O)OC2CCCCC2)Oc2ccc(Cl)cc2)[C@@H](O)[C@@]1(C)N=[N+]=[N-] (single isomer, unassigned) [Compound 273] | 2.8 | – | –
23 | CCCOP1(=O)OC[C@H]2O[C@@H](n3ccc(=O)[nH]c3=O)[C@](C)(N=[N+]=[N-])[C@@H]2O1 (stereo partly shown) [Compound 85] | – | – | EC50 [1]: > 100 µM

Row | Compound | EC50 [µM] | EC50 (Hepatitis C virus, 72 h) [µM] | also measured
24 | CCOC(=O)[C@H](C)NP(=O)(OC[C@H]1O[C@@H](n2cnc3c(OCC)nc(N)nc32)[C@](C)(N=[N+]=[N-])[C@@H]1O)Oc1ccc(F)cc1 (single isomer, unassigned) [Compound 175] | – | 0.4 | –
25 | COc1nc(N)nc2c1ncn2[C@@H]1O[C@@H]2COP(=O)(OC3CCC3)O[C@H]2[C@@]1(C)N=[N+]=[N-] (single isomer, unassigned) [Compound 104] | – | – | EC50 [2]: 10.9 µM
26 | CCCC(CCC)COC(=O)[C@H](C)NP(=O)(OC[C@H]1O[C@@H](n2ccc(=O)[nH]c2=O)[C@](C)(N=[N+]=[N-])[C@@H]1O)Oc1ccccc1 (stereo partly shown) [Compound 328] | – | 2.1 | –
27 | CCCOC(=O)[C@H](C)NP(=O)(OC[C@H]1O[C@@H](n2cnc3c(OCC)nc(N)nc32)[C@](C)(N=[N+]=[N-])[C@@H]1O)Oc1ccccc1 (single isomer, unassigned) [Compound 164] | 1 | – | –
28 | CCOc1nc(N)nc2c1ncn2[C@@H]1O[C@H](COP(=O)(N[C@@H](C)C(=O)OC)Oc2ccccc2Cl)[C@@H](O)[C@@]1(C)N=[N+]=[N-] (stereo partly shown) [Compound 58] | – | 0.5 | –
29 | CCCOC(=O)[C@H](C)NP(=O)(OC[C@H]1O[C@@H](n2cnc3c(OC)nc(N)nc32)[C@](C)(N=[N+]=[N-])C1O)Oc1ccccc1 (single isomer, unassigned) [Compound 288] | 0.9 | – | –
30 | CCOC(=O)[C@H](C)NP(=O)(OC[C@H]1O[C@@H](n2ccc(=O)[nH]c2=O)[C@](C)(N=[N+]=[N-])[C@@H]1O)Oc1ccc(Cl)cc1 (stereo partly shown) [Compound 323] | 5.3 | – | –
31 | CCOc1nc(N)nc2c1ncn2[C@@H]1O[C@H](COP(=O)(N[C@@H](C)C(=O)OC2CCCCC2)Oc2ccc(Cl)cc2)[C@@H](O)[C@@]1(C)N=[N+]=[N-] (stereo partly shown) [Compound 307] | – | 33 | –
32 | C[C@H](NP(=O)(OC[C@H]1O[C@@H](n2ccc(N)nc2=O)[C@](C)(N=[N+]=[N-])[C@@H]1O)Oc1ccccc1)C(=O)OCc1ccccc1 (single isomer, unassigned) [Compound 192] | 19 | – | –
33 | CCCOP1(=O)OC[C@H]2O[C@@H](n3ccc(=O)[nH]c3=O)[C@](C)(N=[N+]=[N-])[C@@H]2O1 (stereo partly shown) [Compound 86] | – | – | EC50 [2]: > 100 µM
34 | C[C@H](NP(=O)(OC[C@H]1O[C@@H](n2ccc(N)nc2=O)[C@](C)(N=[N+]=[N-])[C@@H]1O)Oc1ccccc1)C(=O)OCc1ccccc1 (single isomer, unassigned) [Compound 191] | – | 25 | –
35 | COc1nc(N)nc2c1ncn2[C@@H]1O[C@H](COP(=O)(N[C@@H](C)C(=O)OC(C)C)Oc2ccccc2Cl)[C@@H](O)[C@@]1(C)N=[N+]=[N-] (stereo partly shown) [Compound 240] | – | 5.8 | –
36 | CC(C)OC(=O)[C@H](C)NP(=O)(OC[C@H]1O[C@@H](n2ccc(=O)[nH]c2=O)[C@](C)(N=[N+]=[N-])[C@@H]1O)Oc1ccc2c(c1)OCO2 (stereo partly shown) [Compound 234] | 25 | – | –
37 | CC(C)OC(=O)[C@H](C)NP(=O)(OC[C@H]1O[C@@H](n2ccc(N)nc2=O)[C@](C)(N=[N+]=[N-])[C@@H]1O)Oc1ccc(F)cc1 (stereo partly shown) [Compound 196] | – | 39 | –
38 | CCOC(=O)c1cccc(OP(=O)(N[C@@H](C)C(=O)OC)OC[C@H]2O[C@@H](n3ccc(=O)[nH]c3=O)[C@](C)(N=[N+]=[N-])[C@@H]2O)c1 (single isomer, unassigned) [Compound 213] | – | 7.9 | –
39 | COc1nc(N)nc2c1ncn2[C@@H]1O[C@H](COP(=O)(N[C@@H](C)C(=O)OC2CCCCC2)Oc2ccccc2)[C@@H](O)[C@@]1(C)N=[N+]=[N-] (stereo partly shown) [Compound 239] | – | 3.6 | –
40 | C[C@@]1(N=[N+]=[N-])[C@@H]2OP(=O)(OC3CCCC3)OC[C@H]2O[C@H]1n1ccc(=O)[nH]c1=O (stereo partly shown) [Compound 88] | – | – | EC50 [2]: 0.4 µM
41 | COC(=O)[C@H](C)NP(=O)(OC[C@H]1O[C@@H](n2ccc(N)nc2=O)[C@](C)(N=[N+]=[N-])[C@@H]1O)Oc1ccccc1Cl (stereo partly shown) [Compound 94] | 10 | – | –
42 | COc1nc(N)nc2c1ncn2[C@@H]1O[C@H](COP(=O)(N[C@@H](C)C(=O)OC(C)C)Oc2ccc(F)cc2)[C@@H](O)[C@@]1(C)N=[N+]=[N-] (stereo partly shown) [Compound 243] | – | 1.4 | –
43 | CCCCOC(=O)[C@H](C)NP(=O)(OC[C@H]1O[C@@H](n2cnc3c(OCC)nc(N)nc32)[C@](C)(N=[N+]=[N-])[C@@H]1O)Oc1cccc2ccccc12 (single isomer, unassigned) [Compound 171] | – | 0.5 | –
44 | CCOc1nc(N)nc2c1ncn2[C@@H]1O[C@H](COP(=O)(N[C@@H](C)C(=O)OC(C)C)Oc2ccccc2)[C@@H](O)[C@@]1(C)N=[N+]=[N-] (single isomer, unassigned) [Compound 165] | 6.2 | – | –
45 | COC(=O)[C@H](C)NP(=O)(OC[C@H]1O[C@@H](n2ccc(N)nc2=O)[C@](C)(N=[N+]=[N-])[C@@H]1O)Oc1cccc2ccccc12 (stereo partly shown) [Compound 47] | – | 0.4 | –
46 | COc1nc(N)nc2c1ncn2[C@@H]1O[C@H](COP(=O)(N[C@@H](C)C(=O)OCC(C)C)Oc2ccc(Cl)cc2)[C@@H](O)[C@@]1(C)N=[N+]=[N-] (single isomer, unassigned) [Compound 295] | – | 0.2 | –
